# ChEMBL document CHEMBL3046536, “Synthesis, crystal structure, and insecticidal activity of novel N-alkyloxyoxalyl derivatives of 2-arylpyrrole” (2008)
# Tests used:
# Type in all cases: functional
# [1] = system: Tetranychus cinnabarinus; assay: Insecticidal activity against Tetranychus cinnabarinus (carmine spider mite) infested on Sieva bean plants leaves exposed to compound formulation at 50 mg/kg assessed as insect mortality measured 2 days post compound treatment; details: 48 h
# [2] = system: Tetranychus cinnabarinus; assay: Insecticidal activity against Tetranychus cinnabarinus (carmine spider mite) infested on Sieva bean plants leaves exposed to compound formulation at 100 mg/kg assessed as insect mortality measured 2 days post compound treatment; details: 48 h
# [3] = system: Tetranychus cinnabarinus; assay: Insecticidal activity against Tetranychus cinnabarinus (carmine spider mite) infested on Sieva bean plants leaves exposed to compound formulation at 200 mg/kg assessed as insect mortality measured 2 days post compound treatment; details: 48 h
# [4] = system: Culex pipiens pallens; assay: Insecticidal activity against Culex pipiens pallens (mosquito) fourth-instar larvae assessed as insect mortality at 0.1 mg/kg measured 2 days post compound treatment; details: 48 h
# [5] = system: Culex pipiens pallens; assay: Insecticidal activity against Culex pipiens pallens (mosquito) fourth-instar larvae assessed as insect mortality at 0.25 mg/kg measured 2 days post compound treatment; details: 48 h
# [6] = system: Culex pipiens pallens; assay: Insecticidal activity against Culex pipiens pallens (mosquito) fourth-instar larvae assessed as insect mortality at 0.5 mg/kg measured 2 days post compound treatment; details: 48 h
# [7] = system: Mythimna separata; assay: Insecticidal activity against Mythimna separata (Oriental armyworm) fourth-instar larvae infested compound pre-treated corn leaves assessed as insect mortality at 10 mg/kg measured 2 days post compound treatment
# [8] = system: Mythimna separata; assay: Insecticidal activity against Mythimna separata (Oriental armyworm) fourth-instar larvae infested compound pre-treated corn leaves assessed as insect mortality at 20 mg/kg measured 2 days post compound treatment
# [9] = system: Mythimna separata; assay: Insecticidal activity against Mythimna separata (Oriental armyworm) fourth-instar larvae infested compound pre-treated corn leaves assessed as insect mortality at 5 mg/kg measured 2 days post compound treatment
Compound,mortality at 50 mg/kg [1] [%],mortality at 100 mg/kg [2] [%],mortality at 200 mg/kg [3] [%],mortality at 0.1 mg/kg [4] [%],mortality at 0.25 mg/kg [5] [%],mortality at 0.5 mg/kg [6] [%],mortality at 10 mg/kg [7] [%],mortality at 20 mg/kg [8] [%],mortality at 5 mg/kg [9] [%]
N#Cc1c(Br)c(C(F)(F)F)n(COC(=O)C(=O)OCC(F)(F)F)c1-c1ccc(Cl)cc1,92,95,100,0,30,100,10,70,
COCCOC(=O)C(=O)OCn1c(-c2ccc(Cl)cc2)c(C#N)c(Br)c1C(F)(F)F,94,95,100,20,90,100,20,100,
CCOCCOC(=O)C(=O)OCn1c(-c2ccc(Cl)cc2)c(C#N)c(Br)c1C(F)(F)F,,,,80,100,100,20,100,
CCCNC(=O)C(=O)OCn1c(-c2ccc(Cl)cc2)c(C#N)c(Br)c1C(F)(F)F,,,,80,100,100,25,100,
CC(C)NC(=O)C(=O)OCn1c(-c2ccc(Cl)cc2)c(C#N)c(Br)c1C(F)(F)F,87,95,100,30,80,100,20,100,
CCCCNC(=O)C(=O)OCn1c(-c2ccc(Cl)cc2)c(C#N)c(Br)c1C(F)(F)F,,0,48,20,90,100,0,100,
CCC(C)NC(=O)C(=O)OCn1c(-c2ccc(Cl)cc2)c(C#N)c(Br)c1C(F)(F)F (stereo unspecified),,,,,,,30,100,
CC(C)(C)NC(=O)C(=O)OCn1c(-c2ccc(Cl)cc2)c(C#N)c(Br)c1C(F)(F)F,,,,10,30,100,20,100,
COC(=O)C(=O)OCn1c(-c2ccc(Cl)cc2)c(C#N)c(Br)c1C(F)(F)F,,,,,,,15,100,
CCOC(=O)C(=O)OCn1c(-c2ccc(Cl)cc2)c(C#N)c(Br)c1C(F)(F)F,,,,,,,80,100,
CCCOC(=O)C(=O)OCn1c(-c2ccc(Cl)cc2)c(C#N)c(Br)c1C(F)(F)F,,,100,10,100,100,100,100,0
CC(C)OC(=O)C(=O)OCn1c(-c2ccc(Cl)cc2)c(C#N)c(Br)c1C(F)(F)F,,,100,20,100,100,70,100,
CCCCOC(=O)C(=O)OCn1c(-c2ccc(Cl)cc2)c(C#N)c(Br)c1C(F)(F)F,,,,,,,100,100,
CCOCn1c(-c2ccc(Cl)cc2)c(C#N)c(Br)c1C(F)(F)F [CHLORFENAPYR],93,97,100,100,100,100,100,100,0
